{"source": "patent US20110319384A1", "about": "“Pharmaceutical Compositions” (priority 2005, published 2011)", "key": {"patients with GAD [1]": {"tested_on": "patients with GAD", "details": "cited from earlier work"}, "[2]": {"tested_on": "patients with treatment resistant major depression", "test": "Example 24: augmentation of antidepressant therapy, quetiapine versus lithium, 56 days", "experimental": "The study compared tolerability and efficacy. […] Lithium was initiated at 600 mg/day, and maintained over Week 1 and 2 and subsequently adjusted to attain a level of 0.8-1.2 mmol/L. Lithium levels were taken weekly.\nA total of 20 patients were randomized to 1 of the 2 treatment groups. The study population included men and women aged 18-65 years, with a diagnosis of major depression according to DSM-IV, Hamilton Depression Rating Scale (HAM-D)≧20 and a Clinical Global […] (CGI) score ≧4.\nPatients were evaluated at baseline and then on days 7, 14, 28, 42, and 56 using the HAM-D, Montgomery-Asberg […] (MADRS), SAS, and Widlocher Psychomotor Retardation Scale."}, "[3]": {"tested_on": "patients resistant to anti-depressant treatment", "details": "within 4 weeks; adjunct to anti-depressant therapy; cited from earlier work"}, "patients with GAD [4]": {"tested_on": "patients with GAD", "details": "cited from earlier work", "remark": "listed apart in the source"}, "[5]": {"details": "add-on to antidepressant, mean doses quetiapine 430 mg/day, lithium 825 mg/day"}}}
{"smiles": "CN[C@H]1CC[C@@H](c2ccc(Cl)c(Cl)c2)c2ccccc21", "note": "[sertraline+placebo, sertraline]", "values": [{"measurement": "mean improvement (decrease) from baseline to endpoint in CAPS total score", "setting": "patients with PTSD; 8 weeks", "result": "about 53"}, {"measurement": "patients still meeting PTSD diagnostic criteria", "setting": "patients with PTSD; after 8 weeks of treatment, disparity not seen with LOCF analysis", "result": 37, "unit": "%"}, {"measurement": "CGI-I scores", "setting": "patients with PTSD; in vivo", "result": "significant increase"}, {"measurement": "mean HAM-D scores and CGI-S scores, baseline to endpoint", "setting": "patients with PTSD; in vivo", "result": "decreased significantly"}, {"measurement": "patients that experienced at least one AE", "setting": "patients with PTSD; of 59 in the study", "result": 31, "unit": "patients"}]}
{"smiles": "COc1ccc(C(CN(C)C)C2(O)CCCCC2)cc1", "note": "(stereo not shown) [Venlafaxine XR, venlafaxine]", "values": [{"measurement": "change in HAM-A total score compared to placebo", "setting": "patients with GAD [1]; at 6 months, another long-term study", "result": 5.4}, {"measurement": "difference in HAM-A total score", "setting": "patients with GAD [1]; long-term study, s.d.=7.5", "result": 4.18, "unit": "points"}]}
{"smiles": "[Li]", "note": "[lithium]", "values": [{"measurement": "Widlocher Psychomotor Retardation Scale mean baseline score", "setting": "[2]; add-on to antidepressant", "result": "about 22"}, {"measurement": "Widlocher Psychomotor Retardation Scale mean score after treatment", "setting": "[2]; add-on to antidepressant", "result": "about 15"}, {"measurement": "mean MADRS score after Day 7 up to Day 56 (end value)", "setting": "[2]; add-on to antidepressant", "result": "about 22"}, {"measurement": "mean HAM-D score at Day 56", "setting": "[2]; [5]", "result": "about 15"}, {"measurement": "mean HAM-D score, start value of 'From Day 7 to 56'", "setting": "[2]; [5]", "result": "about 28"}, {"measurement": "patients in remission (HAM-D)", "setting": "[2]; after 56 days", "result": 40, "unit": "%"}, {"measurement": "patients who responded (MADRS)", "setting": "[2]; after 56 days", "result": 50, "unit": "%"}, {"measurement": "patients who responded to treatment (HAM-D)", "setting": "[2]; after 56 days", "result": 50, "unit": "%"}, {"measurement": "patients who achieved remission (MADRS)", "setting": "[2]; at 56 days", "result": 30, "unit": "%"}, {"measurement": "patients who respond", "setting": "[3]", "result": "~50", "unit": "%"}]}
{"smiles": "Fc1ccc([C@@H]2CCNC[C@H]2COc2ccc3c(c2)OCO3)cc1", "note": "[paroxetine]", "values": [{"measurement": "percent remission", "setting": "patients with GAD [4]; placebo 30%", "result": 70, "unit": "%"}, {"measurement": "relapse", "setting": "patients with GAD [4]; relapse = increase in CGI-S score of at least 2 points to >=4, or withdrawal from lack of efficacy, placebo 39.9%", "result": 10.9, "unit": "%"}]}
